The results in this text go back to the METLIN SMRT retention time set (Domingo-Almenara et al. 2019).

Each structure is given as a SMILES string.

The nature of this data set: gradient 5% acetonitrile 3 min, to 50% in 2 min, to 85% in 15 min, held 3 min, 100 µL/min. The following applies: column: Zorbax Extend-C18 2.1 x 50 mm; eluents: water / acetonitrile, 0.1% formic acid. In a few lines: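 Pure standards were analyzed in mixtures of ~100 molecules using HPLC coupled to a quadrupole time-of-flight mass spectrometer, in both positive and negative ionization mode. Separation used a Zorbax Extend-C18 column (2.1 × 50 mm, 1.8 μm) at 100 μL/min, with water and acetonitrile each containing 0.1% formic acid. Dead and dwell volumes were 40 μL and 900 μL, and data were collected over 3 months. Retention time was read from computationally picked adduct peaks, each inspected manually.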
In the case of `COC(=O)C1=C(C)NC(C)=C(C(=O)OCCSc2ccccc2)C1C` (stereo not drawn), the RP-LC retention time was 1080 s. In the case of `O=C(Nc1ccc2nc(N3CCN(C4CCCCC4)CC3)cc(C(=O)O)c2c1)c1ccc(F)cc1` it was 625 s. `COc1ccc(-c2cn3c(CC(=O)N4CCN(c5cccc(Cl)c5)CC4)csc3n2)cc1OC` gave an RP-LC retention time of 835 s.

Turning to `Cc1ccc(NC(=O)NC2CCN(c3ccc(F)cc3)C2=O)c(C)c1` (stereo not drawn), the RP-LC retention time was found to be 778 s.

Compound `O=C1CC(c2noc(-c3cc(F)ccc3F)n2)CN1c1ccc(F)c(Cl)c1` (stereo not drawn) yielded an RP-LC retention time of 1110 s. As for `O=C(NC1CCCC1)N1CCC(OC2CCN(Cc3ccccc3)CC2)CC1`, the RP-LC retention time worked out at 634 s.

The compound `CC(C)Cn1cc(S(=O)(=O)Nc2cc(F)ccc2Cl)c2cccnc21` displayed an RP-LC retention time of 1020 s. In the case of `CC1CCN(c2cc(-n3cnc(C(=O)N4CCC(N5CCCCC5)CC4)c3)ncn2)CC1` it was 662 s; in that of `CN(C)c1nc2cc(C(=O)N3CCC4(CC3)OCCO4)sc2n1-c1ccc(F)cc1`, 654 s.

Compound `Cc1nn(C)c2nc(OC(C)C(=O)NCCc3ccccc3)cc(C(F)(F)F)c12` (stereo not drawn) registered an RP-LC retention time of 972 s. In the case of `COCc1noc(C2CN(C(=O)CC(F)(F)F)CC23CCCC3)n1` (stereo not drawn), the RP-LC retention time amounted to 798 s. Compound `O=C(c1ccc2nc(-c3ccccc3)cn2c1)N1CCOCC1` had an RP-LC retention time of 580 s.

`COc1ccc(-c2noc(C3CC(=O)N(c4ccc(C)cc4)C3)n2)c(OC)c1` (stereo not drawn) came in with an RP-LC retention time of 888 s. As for `O=C(NCCn1cnc2cc(C(=O)N3CCCC3)ccc21)Nc1ccc(Br)cc1F`, the RP-LC retention time turned out to be 639 s.

In turn, `COC(=O)Nc1ccc(-c2nc(N3CCOCC3)c3cnn(C4CCN(Cc5cccnc5)CC4)c3n2)cc1` registered an RP-LC retention time of 665 s. In the case of `COc1ccc(C)cc1NC(=O)N(C)CCc1noc(COc2cccc(C)c2)n1` it was 1020 s; in that of `COc1ccc(-c2nn(-c3ccccc3)cc2C(=O)O)cc1N`, 661 s. `O=C(CCc1nc(CSc2nc3ccccc3o2)no1)Nc1nc(-c2ccccc2)cs1` had an RP-LC retention time of 1030 s. Consider `CCOc1ccc(N(C)C(=O)Cn2cccc2-c2nnc(C3CC3)o2)cc1`, for which the RP-LC retention time is 888 s. In turn, `Cc1cc2c(=O)n(CC(=O)Nc3ccc(C)c(Cl)c3)ccc2s1` registered an RP-LC retention time of 896 s. As for `O=c1c2ccccc2c(-c2nc(-c3cccnc3)no2)cn1-c1cccc(F)c1`, the RP-LC retention time worked out at 709 s. In the case of `Cc1ccc(C)c(NC(=O)CN2C(=O)CCCc3cc(S(=O)(=O)N4CCCC4)ccc32)c1` it was 918 s.

`CCOC(=O)N1CCN(c2cc(-c3nc(-c4cccc(OC)c4OC)no3)c3ccccc3n2)CC1`: the RP-LC retention time was 1250 s. Take `CCOc1ccc(NC(=O)CSc2nc(N3CCCCC3)nc3ccccc23)cc1`: the RP-LC retention time was determined as 745 s.

The compound `O=C(CCc1csc2nc(C3CC3)cn12)NCc1ccc(OC(F)(F)F)cc1` gave an RP-LC retention time of 612 s. As to `Cc1ccc(F)cc1NC(=O)Cc1nnc(-c2cnccn2)o1`, the RP-LC retention time is 683 s.

The compound `COCCn1nc(C(=O)N(C)CCCc2c(C)nn(C)c2C)c2c1CCNC2` registered an RP-LC retention time of 572 s. `COc1ccc(-c2noc(CN3C(=O)COc4cc(Cl)ccc43)n2)cc1` displayed an RP-LC retention time of 1060 s. Compound `Cc1cccc(N2CCN(C(=O)C3=CCN(Cc4cccc(F)c4)CC3)CC2)c1` yielded an RP-LC retention time of 690 s.

On to `CCCCC(=O)Nc1nc(-c2ccc3c(c2)NC(=O)C(C)O3)c(C)s1` (stereo not drawn), for which the RP-LC retention time stood at 871 s. `CCCn1c(-c2cccc(C(=O)NCc3ccc(SC)cc3)c2)nc2cccnc21` displayed an RP-LC retention time of 874 s.

With `Cc1ccc(-c2nc3cnccn3c2Nc2ccc(C(=O)NCc3ccco3)cc2)cc1`, the RP-LC retention time came to 753 s. `COc1ccccc1CN[C@H]1CCCN[C@H]1c1ccccc1` had an RP-LC retention time of 578 s. `CCOC(=O)c1ccc(NS(=O)(=O)c2cc3n(c2)CCN(C(C)C)C3=O)cc1` registered an RP-LC retention time of 777 s. Regarding `O=C(NCc1ccccc1F)c1ccc2c(c1)CN(Cc1cccc(F)c1)CCO2`, the RP-LC retention time worked out at 675 s. Take `O=C1NCCCCCN(C(=O)c2cnccn2)[C@H]2CCC[C@@H]12`: the RP-LC retention time stood at 620 s. Turning to `Cc1cccc(OCC(=O)N2CCN(c3cc(C)n4cnnc4n3)CC2)c1`, the RP-LC retention time came out at 621 s. Compound `CCc1ccc(CNC(=O)c2nc3cccnc3n(CC(C)C)c2=O)cc1` displayed an RP-LC retention time of 1100 s. Compound `CCC(C)C(NC(=O)c1ccsc1)C(=O)Nc1nc2ccccc2[nH]1` (stereo not drawn) came in with an RP-LC retention time of 703 s. Take `Cc1nc(C(=O)Nc2ccc(C)c(F)c2)c(C)o1`: the RP-LC retention time was found to be 946 s. For the compound `CNC(=O)C1CCCN(c2nc3ncn(CC(=O)N4CCc5ccccc5C4)c(=O)c3s2)C1` (stereo not drawn), the RP-LC retention time was 666 s. For the compound `CCC(c1cccs1)N1C(=O)[C@H]2CN(S(=O)(=O)c3ccc(Cl)cc3)C[C@H]2C1=O` (stereo partly drawn), the RP-LC retention time came to 1060 s. The same measure for `CC1(C(=O)NCc2ccc(Cl)cc2)CN(S(C)(=O)=O)CC(=O)N1c1ccc(F)cc1` (stereo not drawn): 800 s; for `O=C(Cc1cccs1)Nc1cccn2nc(C3CCC3)nc12`: 889 s. `CCn1ccc2sc(C)c(C(=O)NC(C)c3ccc(C)cc3C)c2c1=O` (stereo not drawn) returned an RP-LC retention time of 975 s. The same measure for `Fc1ccccc1-c1noc(NCC2CCCO2)n1` (stereo not drawn): 748 s; for `CCCCn1cc(S(=O)(=O)N2CCN(c3ccccc3F)CC2)c2cccnc21`: 1190 s; for `O=C(Nc1cnc(-c2cccc(Cl)c2)nc1)c1nccc2ccccc12`: 1370 s. As for `CCCNC(=O)C1CCCN(c2nc3ncn(CC(=O)Nc4ccc5c(c4)CCC5)c(=O)c3s2)C1` (stereo not drawn), the RP-LC retention time worked out at 762 s. The compound `CCc1nc2cc(N3CCC(C(=O)NCCN4CCCCCC4)CC3)cnc2nc1CC` showed an RP-LC retention time of 613 s. In the case of `c1ccc(-c2csc(Nc3nc(NCc4ccco4)nc(N4CCCCC4)n3)n2)cc1`, the RP-LC retention time was found to be 1210 s. Compound `Cn1c(=O)n([C@@H]2CCN(C(=O)c3ccc4c(c3)OCO4)C2)c2ncccc21` gave an RP-LC retention time of 688 s. For the compound `CCN1C(=O)c2cccnc2Sc2cc(CNC(=O)c3ccoc3)ccc21`, the RP-LC retention time came to 702 s. `Cc1ccn2cc(-c3ccc(NC(=O)c4ccc(Cl)cc4Cl)cc3)nc2n1` showed an RP-LC retention time of 695 s. `CC(C)N1C(=O)C2(CCCC2)C1C(=O)NCC1CCCCC1` (stereo not drawn) yielded an RP-LC retention time of 775 s. The compound `O=C(CC(=O)Nc1ccccc1F)Nc1ccc2nc3n(c(=O)c2c1)CCCCC3` returned an RP-LC retention time of 722 s. For the compound `CSc1ccc(-c2nc3ncccn3c2Nc2ccc(C)cc2C)cc1`, the RP-LC retention time turned out to be 898 s. Compound `CCc1ccc(CN(CC(=O)N2CCNCC2)C(=O)c2sccc2C)cc1` came in with an RP-LC retention time of 671 s. `CCN(CC)CCOc1ccc(C(=C(Cl)c2ccccc2)c2ccccc2)cc1` had an RP-LC retention time of 1010 s. The compound `CCCOc1ccc(C(=O)Nc2nnc(SCc3nnc(-c4ccccc4)o3)s2)cc1` had an RP-LC retention time of 1050 s. As to `CCCn1cc(S(=O)(=O)N2CCN(c3cccc(Cl)c3)CC2)c2cccnc21`, the RP-LC retention time was 761 s.

Compound `CC(C)C(NC(=O)c1cccc(CN2C(=O)C3CCCN3C(=O)c3ccccc32)c1)c1cccs1` (stereo not drawn) returned an RP-LC retention time of 882 s. The same measure for `CCC(=O)N1CCCC(c2nc(CNC(=O)C(C)C)cs2)C1` (stereo not drawn): 632 s. Regarding `CC(=O)Oc1cc(-c2cccc(C(F)(F)F)c2)c2oc(=O)sc2c1`, the RP-LC retention time turned out to be 1030 s. For `Cc1cc(N2CCN(C)CC2)nc2ccc(NC(=S)N3CCC(Cc4ccccc4)CC3)cc12`, the RP-LC retention time stood at 636 s.

As to `CCc1nnc([C@@H]2CC(F)(F)CN2C(=O)c2ocnc2C)o1`, the RP-LC retention time was determined as 644 s.

As to `Cn1ccnc1SCC(=O)Nc1nc(-c2ccc(F)cc2)cs1`, the RP-LC retention time was 639 s.

As for `Cc1cc(C)c2nc(C)cc(C(=O)NCC(C)C)c2c1`, the RP-LC retention time turned out to be 701 s. In the case of `O=C(NC1(c2nc(-c3cnccn3)no2)CCCCC1)c1cc2cc(Cl)ccc2[nH]1` it was 916 s; in that of `Cc1cc(=O)n(CC(=O)Nc2ccc(Br)cc2F)c(N2CCc3ccccc3C2)n1`, 953 s; in that of `CCc1ccc(S(=O)(=O)NCc2c(-c3ccccc3)nc3sc(C)nn23)cc1`, 943 s. On to `CCn1c(=O)c(N2CCC(NC(=O)NCc3ccccc3)CC2)nc2ccccc21`, for which the RP-LC retention time was determined as 838 s.

In turn, `O=C(c1ccc(-c2cccnc2)nc1)N1CCN(c2ccccc2F)CC1` returned an RP-LC retention time of 688 s. Regarding `Cc1ccc(CNC(=O)Cn2c(=O)c(S(=O)(=O)c3ccccc3)cc3ccccc32)cc1`, the RP-LC retention time worked out at 900 s. `COc1ccc(-c2nnc(COc3cccc(NC(=O)CNC(=O)Cc4ccccc4)c3)o2)cc1` gave an RP-LC retention time of 816 s. `CCN(CC)C(=O)c1ccc(-c2nc3cc(NS(=O)(=O)c4ccc(C)cc4)ccc3n2C)cc1` showed an RP-LC retention time of 700 s. Take `COC(=O)c1c(NCc2ccccc2Cl)c2ccccc2[nH]c1=O`: the RP-LC retention time came to 766 s. In the case of `Cc1ccc(Cl)cc1NC(=O)C1CC(=O)N(c2ccc3c(c2)CCN3C(=O)C2CC2)C1` (stereo not drawn) it was 821 s.
